Experimental data: US10113150B2, “Engineered cardiac tissues and methods of using them” (InvivoSciences, Inc., priority 2011, dated 2018)

How the values were obtained:
[1] = test system: cardiac fibroblasts / myofibroblasts (mFBs) in EHTs; experiment: Elimination of puromycin-sensitive fibroblasts in EHTs; assay type: cell-based, human; set-up: effect on mFBs: dose or concentration left out as unconfirmed
From the text: We fabricated EHTs using CMs derived from mouse ES cells (Cor.AT, Axiogenesis) that express a puromycin resistance-GFP reporter gene fusion driven by a cardiac-specific (αMHC) promoter. These Cor.AT CMs (1.75×10^6) were co-cultured with cardiac fibroblasts (FBs) in a 1:1 ratio (See Asnes, C. F., et al., Reconstitution of the Frank-Starling mechanism in engineered heart tissues. Biophys J, 2006. 91(5): p. 1800-10) for developing a coherently contracting EHT. The EHTs were compressed by the FBs from a loose (6×6×3.5 mm^3) hydrogel into a compacted (˜3×2×0.5 mm^3) coherently contracting tissue in 5-7 days. […] The remodeling capacity of FBs was needed to fabricate compressed 3D tissues that can generate cardiac contraction synchronously. Upon achieving synchronous contraction, the cardiac twitch force was measured using the Palpator. […] We expected that application of a similar protocol to fabricate EHTs with iPSC-derived CMs should produce similar cardiac contractility since individual CMs derived from human ES cells, iPSCs, and native rat hearts produced equivalent degrees of cardiac contractility. Our results showing similar results for human ES cells is below.
An increasing density of cardiomyocytes (CMs) in the EHT constructs promoted intercellular contacts to form a synchronously contracting EHT while myofibroblasts (mFBs) remodeled and compressed the constructs. However, an overgrowth of mFBs limited survival of CMs. By regulating the mFB proliferation, cardiac contractility of EHTs without mFBs was maintained at least 10-50% longer than those with mFBs. […] The Cor.AT CMs (1.75×10^6) were co-cultured with mFBs in a 5:1 ratio using previously published method and developed a coherently beating EHT. The EHTs with mFBs were compressed from a loose (6×6×3.5 mm^3) hydrogel into a compacted (˜3×2×0.5 mm^3) tissue in 5-7 days (FIG. 15B). Varying numbers of mFBs were mixed with CMs (e.g., 0.1:1, 0.5:1 up to 1:1) to fabricate EHTs. […]

[2] = test system: mitochondrial membrane potential of EHTs; experiment: Mitochondrial membrane potential (MMP) of EHTs by TMRE fluorescence; assay type: cell-based, rat
From the text: The bottoms of the 8-well chambers were sealed with glass coverslips so that EHT cells could be observed using various optical instruments including microscopes and fluorescence plate readers in real time or after fixations. […] Mitochondria produce ATP via the electrochemical/osmotic gradient (˜180 mV) generated and maintained by the electron transport chain. Therefore, highly charged mitochondria produce ATP to support cardiac contractions.
Using a fluorescence plate reader (Synergy™ HT, BioTek U.S., Winooski, V T), we simultaneously measured TMRE's fluorescent signal (543 nm excitation/605±16 nm emission) and EHT contractions to determine the coupling between MMP and cardiac contractility. After a short (15-min) administration of 900 μM DNP (2,4-dinitrophenol), a potent uncoupler of MMP (FIG. 7F), to the EHTs MMP was reduced and cardiac contraction stopped (FIG. 7E).
Drug-induced cardiotoxicity often damages mitochondrial metabolic activity. We have developed additional assays for quantifying the mitochondrial membrane potential (MMP) of EHTs using the cationic potential metric dye tetramethylrhodamine ethyl ester (TMRE), and we are also assessing EHT viability using 3-(4,5-Dimethylthiazol-2-yl)-2,5-diphenyltetrazolium (MTT). An automated microplate reader was used to measure fluorescence or optical absorbance of these dyes. With these assays, we successfully screened for a small molecule that modulates cellular and tissue contractility without altering MMP and viability of cells (details in Lam, V. and T. Wakatsuki, Hydrogel Tissue Construct-Based High-Content Compound Screening. Journal of Biomolecular Screening, 2011. 16(1): p. 120-128.). Four test compounds were assayed: Rho kinase inhibitor (H1152), cytochalasin D (CD), 2,4-dinitrophenol (DNP), and rotenone (ROT). […] Assays to assess mitochondrial activity and metabolic parameters such as ATP concentrations, O2 consumption and free radical production have been measured using similar techniques, see e.g. Lam, V. and T. Wakatsuki, Hydrogel Tissue Construct-Based High-Content Compound Screening. […]

[3] = test system: engineered heart tissues (EHTs); experiment: EHT contractility assay (cardiac twitch force, Palpator)
From the text: EHTs were fabricated with 1.75-2×10^6 cardiomyocytes/mL using MC-8™ system (InvivoSciences, LLC). The cardiomyocytes were obtained from neonatal rats and guinea pigs, or embryonic mice or chicken. Viable and spontaneously twitching EHTs were generally obtained by day 10 after fabrication. The EHTs were electrically stimulated (60 mV, 1 Hz) during mechanical testing. The mechanical properties of EHTs using the Palpator™ device (InvivoSciences, LLC). This automated device positions a force probe directly above the center of each well (FIG. 7A-i) and moves it vertically in two (or more) steps (FIG. 7A-ii, -iii) to stretch twice the EHT to 3.7% and 7.7% longitudinally. Cardiac twitch (systolic) force and resting (diastolic) force were measured during each step for 30 and 60 s. […] The peak rate at which the cardiac twitch force changes (FIG. 7C) also indicated the contractility (FIG. 7D) of the EHT much like the dP/dtmax of left ventricles measured by pressure catheters.
To validate the ability of our assay system to assess cardiotoxicity, we profiled the effects of anti-cancer agents (doxorubicin and daunorubicin) and beta-adrenoceptor agonist (isoproterenol), which are known to cause cardiotoxicity in clinical and experimental applications. […] After a 3-day incubation with doxorubicin (20 nM, 200 nM, or 1 μM) the EHTs were measured again and their viability was determined.

[4] = 900 μM, short (15-min) administration to EHTs

SMILES | effect on mFBs [1] | effect on puromycin sensitive FBs ([1]; 5 μM, after compaction, EHTs with Cor.AT CMs) | effect on mFB in the EHTs ([1]; 10 μM, Cor.AT myocytes with human cardiac myofibroblasts) | MMP (mitochondrial membrane potential) ([2]; 450 μM) | MMP (mitochondrial membrane potential) [2, 4] | EC50 ([2]; rat EHT, FIG. 14, read-out: EC50 of MMP dissipation) | cardiac twitch force ([3]; 450 μM) | cardiac contraction [3, 4] | twitch force ([3]; increasing concentrations, FIG. 7E)
COc1ccc(C[C@H](N)C(=O)N[C@H]2[C@@H](O)[C@H](n3cnc4c(N(C)C)ncnc43)O[C@@H]2CO)cc1 [puromycin] | eliminated | eliminated or their viability reduced | eliminated | – | – | – | – | – | –
O=[N+]([O-])c1ccc(O)c([N+](=O)[O-])c1 [DNP, 2,4-dinitrophenol] | – | – | – | attenuated | reduced | 340 µM | not reduced significantly | stopped | reduced
